ChEMBL document CHEMBL3046534, “QSAR modeling of the inhibition of reverse transcriptase enzyme with benzimidazolone analogs” (Med Chem Res, 2011)

System: Human immunodeficiency virus 1
Test: Antiviral activity against Human immunodeficiency virus 1 infected human MT4 cells assessed as protection against virus-induced cytopathic effect
Assay type: functional, organism-based
Details: Human immunodeficiency virus 1, MT4

| SMILES | EC50 (read-out: EC50) [µM] | EC50 (read-out: pEC50 (converted)) [µM] |
| --- | --- | --- |
| CC(C)c1ccc(Cn2c(O)nc3ccc(Cl)cc32)cc1 | 2.83 | 2.83 |
| Oc1nc2ccc(Cl)cc2n1Cc1cccc2ccccc12 | 0.87 | 0.87 |
| Oc1nc2cc(Cl)ccc2n1Cc1c(F)cccc1F | 29.6 | 29.6 |

Now from value to compound:

| EC50 (read-out: EC50) [µM] | EC50 (read-out: pEC50 (converted)) [µM] | SMILES |
| --- | --- | --- |
| 3.72 | 3.72 | O=c1oc2ccc(Cl)cc2n1Cc1c(F)cccc1F |
|  | 0.534 | O=c1[nH]c2ccc(Cl)cc2n1Cc1c(F)cccc1F |
